Converted amounts (≈) assume the structure as drawn. “And” between values parts separate entries of the source, which are not always exact repeats. Equal values may be shown once. Each block holds one compound with its values, some of them ahead of it.
What was measured:
Assay in all cases: ≥ marks a high value that may be exact or a test limit, other limits are often not marked, values filed in µg/mL are converted to µM
[1] = system: Acinetobacter baumannii ATCC 19606
[2] = system: Salmonella enterica subsp. enterica serovar Enteritidis
[3] = system: Escherichia coli ATCC 25922
[4] = system: Candida albicans ATCC 90028
Escherichia coli ML-35p = system: Escherichia coli ML-35p
[5] = system: Streptococcus pyogenes ATCC 19615
[6] = system: Enterococcus faecalis ATCC 29212
[7] = system: Klebsiella pneumoniae ATCC 13883
Saccharomyces cerevisiae = system: Saccharomyces cerevisiae
Listeria ivanovii = system: Listeria ivanovii
[8] = system: Candida parapsilosis ATCC 22019
[9] = system: Staphylococcus aureus ATCC 25923
[10] = system: Pseudomonas aeruginosa ATCC 27853
[11] = system: Staphylococcus aureus ST1065
[12] = system: Streptococcus gordonii DL1
[13] = system: Limosilactobacillus fermentum ATCC 9338
[14] = system: Actinomyces naeslundii ATCC 12104
[15] = system: Lactobacillus acidophilus ATCC 14931
[16] = system: Streptococcus sanguinis ATCC 10556
[17] = system: Lacticaseibacillus casei ATCC 393
[18] = system: Actinomyces viscosus ATCC 15987
[19] = system: Streptococcus mutans UA159
[20] = system: Staphylococcus aureus ATCC 6538
[21] = system: Escherichia coli ATCC 2592
[22] = system: Staphylococcus aureus 1550
[23] = system: Micrococcus luteus ATCC 9341
[24] = system: Pseudomonas aeruginosa ATCC 9027
[25] = system: Staphylococcus aureus ATCC 33591
[26] = system: Pseudomonas aeruginosa PAO1
Escherichia coli C600 = system: Escherichia coli C600
[27] = system: Staphylococcus aureus 209P
Klebsiella pneumoniae 2 = system: Klebsiella pneumoniae 2
Escherichia coli = system: Escherichia coli
Klebsiella pneumoniae 1 = system: Klebsiella pneumoniae 1
Pseudomonas aeruginosa 2 = system: Pseudomonas aeruginosa 2
Pseudomonas aeruginosa 1 = system: Pseudomonas aeruginosa 1
Escherichia coli 1 = system: Escherichia coli 1
Proteus mirabilis = system: Proteus mirabilis
Proteus vulgaris = system: Proteus vulgaris
Candida albicans = system: Candida albicans
Vibrio cholerae = system: Vibrio cholerae
Enterococcus faecium = system: Enterococcus faecium
[28] = system: Vibrio parahaemolyticus ATCC 17802
Bacillus cereus = system: Bacillus cereus
Candida glabrata = system: Candida glabrata
Vibrio splendidus = system: Vibrio splendidus
[29] = system: Staphylococcus epidermidis
Acinetobacter baumannii = system: Acinetobacter baumannii
Klebsiella pneumoniae = system: Klebsiella pneumoniae
Vibrio parahaemolyticus = system: Vibrio parahaemolyticus
Staphylococcus aureus 1 = system: Staphylococcus aureus 1
Bacillus subtilis = system: Bacillus subtilis
Vibrio anguillarum = system: Vibrio anguillarum
Aspicilia cinerea = system: Aspicilia cinerea
Staphylococcus aureus = system: Staphylococcus aureus
Candida albicans 1 = system: Candida albicans 1
Pseudomonas aeruginosa = system: Pseudomonas aeruginosa
[30] = system: Acinetobacter baumannii 1

Compound: CC[C@H](C)[C@H](NC(=O)CNC(=O)[C@H](CO)NC(=O)[C@H](C)NC(=O)[C@@H](N)Cc1ccccc1)C(=O)N[C@@H](C)C(=O)NCC(=O)N[C@@H](CCSC)C(=O)N[C@@H](C)C(=O)NCC(=O)N[C@@H](CCCCN)C(=O)N[C@@H](CC(C)C)C(=O)N[C@@H](Cc1ccccc1)C(N)=O [FASGIAGMAGKLF]
MIC [1]: > 200 µM
MIC [2]: ≥ 200 µM
MIC [3]: > 200 µM
MIC [4]: ≥ 200 µM
MIC (Escherichia coli ML-35p): ≥ 200 µM
MIC [5]: ≥ 200 µM
MIC [6]: > 200 µM
MIC [7]: ≥ 200 µM
MIC (Saccharomyces cerevisiae): ≥ 200 µM
MIC (Listeria ivanovii): ≥ 200 µM
MIC [8]: ≥ 200 µM
MIC [9]: > 200 µM
MIC [10]: > 200 µM
MIC [11]: ≥ 200 µM

Compound: CC(C)C[C@H](NC(=O)CN)C(=O)N[C@@H](CC(C)C)C(=O)N[C@@H](Cc1c[nH]c2ccccc12)C(=O)N[C@@H](Cc1cnc[nH]1)C(=O)N[C@@H](CC(C)C)C(=O)N[C@@H](CC(C)C)C(=O)N[C@@H](Cc1cnc[nH]1)C(=O)N[C@@H](Cc1cnc[nH]1)C(=O)N[C@@H](CC(C)C)C(=O)N[C@@H](CC(C)C)C(=O)N[C@@H](Cc1cnc[nH]1)C(=O)N[C@@H](CC(C)C)C(=O)N[C@@H](CC(C)C)C(=O)N[C@@H](Cc1cnc[nH]1)C(=O)N[C@@H](Cc1cnc[nH]1)C(N)=O [GLLWHLLHHLLHLLHH]
MIC [12]: ≥ 64.3 µM
MIC [13]: 16.1 µM (≈ 32 µg/mL)
MIC [14]: ≥ 257 µM
MIC [15]: 4.02 µM (≈ 8 µg/mL)
MIC [16]: ≥ 64.3 µM
MIC [17]: 4.02 µM (≈ 8 µg/mL)
MIC [18]: ≥ 257 µM
MIC [19]: ≥ 257 µM

Now from value to compound, other results behind:

MIC [20]: 10.2 µM (≈ 12.5 µg/mL)
MIC [21]: 18 µM (≈ 22 µg/mL)
MIC [22]: 13.1 µM (≈ 16 µg/mL)
MIC [23]: 9.01 µM (≈ 11 µg/mL)
MIC [24]: 13.1 µM (≈ 16 µg/mL)
Compound: CC(C)C[C@H](NC(=O)[C@@H](NC(=O)[C@H](CCCCN)NC(=O)[C@H](Cc1ccccc1)NC(=O)[C@@H](NC(=O)[C@@H](NC(=O)[C@H](CCCCN)NC(=O)[C@@H](N)CC(C)C)C(C)C)C(C)C)C(C)C)C(=O)N[C@@H](Cc1ccccc1)C(=O)N[C@@H](CCCCN)C(=O)O [LKVVFKVLFK]

MIC [25]: 0.12 µM (≈ 0.261 µg/mL)
MIC [26]: 3.13 µM (≈ 6.81 µg/mL)
MIC (Escherichia coli C600): 1.56 µM (≈ 3.39 µg/mL)
MIC [27]: 3.13 µM (≈ 6.81 µg/mL)
MIC (Klebsiella pneumoniae 2): 2 µM and 4 µM
MIC (Escherichia coli): 0.5 µM and 1 µM
MIC (Klebsiella pneumoniae 1): 1 µM and 2 µM
MIC (Pseudomonas aeruginosa 2): 2 µM (≈ 4.35 µg/mL)
MIC (Pseudomonas aeruginosa 1): 2 µM (≈ 4.35 µg/mL)
MIC (Escherichia coli 1): 1 µM and 0.5 µM
Compound: CC(C)[C@@H]1NC(=O)CNC(=O)[C@H](CCCN=C(N)N)NC(=O)[C@H](C(C)C)NC(=O)[C@@H]2CSSC[C@H](NC1=O)C(=O)N[C@@H](Cc1ccc(O)cc1)C(=O)N[C@@H](CCCN=C(N)N)C(=O)N[C@@H](CCCN=C(N)N)C(=O)N[C@H](C(=O)N[C@@H](Cc1c[nH]c3ccccc13)C(=O)O)CSSC[C@H](NC(=O)[C@H](Cc1c[nH]c3ccccc13)NC(=O)[C@@H](N)CCCN=C(N)N)C(=O)N[C@@H](C(C)C)C(=O)N[C@@H](Cc1ccc(O)cc1)C(=O)N[C@@H](C)C(=O)N2 [RWCVYACVRGVCYRRCW]

MIC (Proteus mirabilis): 1.83 µM (≈ 4.69 µg/mL)
MIC (Proteus vulgaris): ≥ 78.2 µM
MIC (Candida albicans): 14.7 µM (≈ 37.5 µg/mL)
MIC (Enterococcus faecium): 7.33 µM (≈ 18.8 µg/mL)
MIC (Bacillus cereus): 7.33 µM (≈ 18.8 µg/mL)
MIC (Candida glabrata): 14.7 µM (≈ 37.5 µg/mL)
MIC (Vibrio splendidus): 1.83 µM (≈ 4.69 µg/mL)
MIC [9]: 14.7 µM (≈ 37.5 µg/mL)
MIC [29]: 7.33 µM (≈ 18.8 µg/mL)
MIC (Acinetobacter baumannii): ≥ 78.2 µM
MIC (Klebsiella pneumoniae): 5.19 µM (≈ 13.3 µg/mL)
MIC (Staphylococcus aureus 1): 5.19 µM (≈ 13.3 µg/mL)
MIC (Bacillus subtilis): 0.919 µM (≈ 2.35 µg/mL)
MIC [10]: 7.33 µM (≈ 18.8 µg/mL)
MIC (Vibrio anguillarum): 1.83 µM (≈ 4.69 µg/mL)
MIC (Aspicilia cinerea): 7.33 µM (≈ 18.8 µg/mL)
MIC (Klebsiella pneumoniae 1): ≥ 78.2 µM
MIC (Staphylococcus aureus): 14.7 µM (≈ 37.5 µg/mL)
MIC (Candida albicans 1): 5.19 µM (≈ 13.3 µg/mL)
MIC (Pseudomonas aeruginosa): 5.19 µM (≈ 13.3 µg/mL)
MIC [30]: 7.33 µM (≈ 18.8 µg/mL)
MIC (Escherichia coli 1): 7.33 µM (≈ 18.8 µg/mL)
Compound: CC[C@H](C)[C@H](NC(=O)[C@H](CCCCN)NC(=O)[C@H](CC(C)C)NC(=O)[C@H](C)NC(=O)CNC(=O)[C@H](CC(N)=O)NC(=O)[C@H](CC(C)C)NC(=O)[C@@H](NC(=O)[C@H](CCCCN)NC(=O)[C@H](CCCCN)NC(=O)[C@H](Cc1c[nH]c2ccccc12)NC(=O)[C@H](Cc1ccccc1)NC(=O)[C@H](CCCCN)NC(=O)[C@H](CCCN=C(N)N)NC(=O)[C@H](CCCN=C(N)N)NC(=O)[C@@H](N)[C@@H](C)O)C(C)C)C(=O)N[C@@H](C)C(=O)N1CCC[C@H]1C(=O)N[C@@H](Cc1ccccc1)C(=O)N[C@@H](CC(C)C)C(=O)N[C@@H](CC(C)C)C(=O)NCC(=O)O [TRRKFWKKVLNGALKIAPFLLG]
MIC (Vibrio cholerae): 7.33 µM (≈ 18.8 µg/mL)
MIC [28]: 1.83 µM (≈ 4.69 µg/mL)
MIC (Vibrio parahaemolyticus): 1.83 µM (≈ 4.69 µg/mL)
